# Results from ChEMBL document CHEMBL1201862, “PubChem BioAssay data set” (2004).
# Activity calls are given as the source filed them.
# Experiments:
# [1] = molecular target: T1, Caspase-3 (Homo sapiens, UniProt P42574); type: functional;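 also: Dose-response selectivity test against caspase-3 for candidate inhibitors of sentrin-specific proteases (SENPs)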
# T1 sequence (P42574 whole entry): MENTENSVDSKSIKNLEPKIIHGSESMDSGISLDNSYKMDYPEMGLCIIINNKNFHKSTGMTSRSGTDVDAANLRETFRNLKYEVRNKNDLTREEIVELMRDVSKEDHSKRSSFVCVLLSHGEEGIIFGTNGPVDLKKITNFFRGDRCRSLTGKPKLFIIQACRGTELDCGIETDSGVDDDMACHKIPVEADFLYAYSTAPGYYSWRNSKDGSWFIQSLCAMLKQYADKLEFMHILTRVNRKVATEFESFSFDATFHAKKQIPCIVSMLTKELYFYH
# [2] = molecular target: T2, Sentrin-specific protease 7 (Homo sapiens, UniProt Q9BQF6); type: functional;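 also: Luminescence-based dose-response confirmation of ultra-high-throughput screening hits, measuring inhibition of SENP7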
# T2 sequence (Q9BQF6 whole entry): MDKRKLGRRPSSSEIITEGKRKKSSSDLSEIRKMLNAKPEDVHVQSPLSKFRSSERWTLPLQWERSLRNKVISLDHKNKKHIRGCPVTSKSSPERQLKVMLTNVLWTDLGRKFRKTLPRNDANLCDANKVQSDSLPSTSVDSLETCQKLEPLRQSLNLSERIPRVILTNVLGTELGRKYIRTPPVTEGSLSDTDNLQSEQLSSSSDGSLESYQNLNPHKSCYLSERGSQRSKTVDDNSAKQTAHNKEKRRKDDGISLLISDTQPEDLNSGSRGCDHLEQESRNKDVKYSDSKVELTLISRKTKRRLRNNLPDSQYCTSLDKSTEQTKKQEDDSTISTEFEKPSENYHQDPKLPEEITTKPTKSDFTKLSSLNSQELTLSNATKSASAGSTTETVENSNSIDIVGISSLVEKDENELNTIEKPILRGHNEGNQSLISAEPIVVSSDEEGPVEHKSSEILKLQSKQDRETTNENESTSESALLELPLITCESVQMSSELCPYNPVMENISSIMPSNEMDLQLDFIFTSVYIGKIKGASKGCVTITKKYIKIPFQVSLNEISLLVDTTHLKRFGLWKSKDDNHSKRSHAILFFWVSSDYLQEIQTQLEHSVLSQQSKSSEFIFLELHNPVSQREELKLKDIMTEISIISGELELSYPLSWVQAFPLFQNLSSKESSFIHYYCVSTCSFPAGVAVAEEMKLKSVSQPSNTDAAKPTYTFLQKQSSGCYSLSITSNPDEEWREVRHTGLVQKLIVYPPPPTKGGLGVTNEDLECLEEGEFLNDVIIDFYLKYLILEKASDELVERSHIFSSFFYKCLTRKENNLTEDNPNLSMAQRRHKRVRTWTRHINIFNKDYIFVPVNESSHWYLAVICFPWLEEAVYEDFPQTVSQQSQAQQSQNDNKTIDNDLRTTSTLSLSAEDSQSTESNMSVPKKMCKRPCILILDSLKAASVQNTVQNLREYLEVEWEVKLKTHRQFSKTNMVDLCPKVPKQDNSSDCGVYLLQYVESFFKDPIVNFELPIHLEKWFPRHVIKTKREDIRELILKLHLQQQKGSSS
# [3] = molecular target: T3, Sentrin-specific protease 6 (Homo sapiens, UniProt Q9GZR1); type: functional;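 also: Luminescence-based dose-response confirmatory assay of SENP6 inhibition, following up an ultra-high-throughput screen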
# T3 sequence (Q9GZR1 whole entry): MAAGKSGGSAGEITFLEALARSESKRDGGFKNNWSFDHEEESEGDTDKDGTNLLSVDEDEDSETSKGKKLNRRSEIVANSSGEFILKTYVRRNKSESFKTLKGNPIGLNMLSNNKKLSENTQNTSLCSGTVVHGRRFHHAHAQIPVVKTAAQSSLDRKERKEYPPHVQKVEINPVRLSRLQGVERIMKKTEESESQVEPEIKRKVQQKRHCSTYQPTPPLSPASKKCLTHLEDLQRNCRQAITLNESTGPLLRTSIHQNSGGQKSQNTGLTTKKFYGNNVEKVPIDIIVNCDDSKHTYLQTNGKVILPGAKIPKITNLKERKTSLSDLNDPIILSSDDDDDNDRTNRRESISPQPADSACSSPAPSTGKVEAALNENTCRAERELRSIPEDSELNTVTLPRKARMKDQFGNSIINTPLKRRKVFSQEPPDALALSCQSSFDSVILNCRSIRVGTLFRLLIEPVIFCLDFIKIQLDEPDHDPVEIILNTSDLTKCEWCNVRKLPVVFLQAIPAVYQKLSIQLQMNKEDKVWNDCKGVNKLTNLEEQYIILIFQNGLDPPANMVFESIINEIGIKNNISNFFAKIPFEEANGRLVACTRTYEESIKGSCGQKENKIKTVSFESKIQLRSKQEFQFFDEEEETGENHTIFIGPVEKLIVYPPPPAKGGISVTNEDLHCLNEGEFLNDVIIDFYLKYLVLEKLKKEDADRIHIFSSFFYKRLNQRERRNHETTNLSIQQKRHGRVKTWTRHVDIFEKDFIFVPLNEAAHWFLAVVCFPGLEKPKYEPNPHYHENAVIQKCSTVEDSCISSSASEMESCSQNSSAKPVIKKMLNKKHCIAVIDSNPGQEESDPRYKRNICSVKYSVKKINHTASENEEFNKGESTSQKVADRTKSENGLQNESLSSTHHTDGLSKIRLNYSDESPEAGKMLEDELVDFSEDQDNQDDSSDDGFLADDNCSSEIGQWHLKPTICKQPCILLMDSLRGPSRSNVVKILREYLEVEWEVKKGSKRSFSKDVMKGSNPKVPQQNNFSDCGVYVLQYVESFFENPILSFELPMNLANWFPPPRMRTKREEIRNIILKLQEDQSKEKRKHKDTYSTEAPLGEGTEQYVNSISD
# [4] = molecular target: T4, Sentrin-specific protease 8 (Homo sapiens, UniProt Q96LD8); type: functional;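 also: luminescence read-out of SENP8 inhibition, dose-response confirmation following an ultra-high-throughput screen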
# T4 sequence (Q96LD8 whole entry): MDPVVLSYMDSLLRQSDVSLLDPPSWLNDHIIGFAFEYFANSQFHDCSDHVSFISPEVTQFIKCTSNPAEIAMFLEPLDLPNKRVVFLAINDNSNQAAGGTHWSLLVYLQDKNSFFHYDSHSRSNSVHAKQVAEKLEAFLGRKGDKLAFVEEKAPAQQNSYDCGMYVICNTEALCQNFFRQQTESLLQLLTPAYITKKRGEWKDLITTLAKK
# [5] = molecular target: Luciferin 4-monooxygenase (Photinus pyralis, UniProt P08659); experiment: inhibition of purified Photinus pyralis luciferase – biochemical, luminescence, dose response (AID 1891)
# Sequence of Luciferin 4-monooxygenase (P08659 whole entry): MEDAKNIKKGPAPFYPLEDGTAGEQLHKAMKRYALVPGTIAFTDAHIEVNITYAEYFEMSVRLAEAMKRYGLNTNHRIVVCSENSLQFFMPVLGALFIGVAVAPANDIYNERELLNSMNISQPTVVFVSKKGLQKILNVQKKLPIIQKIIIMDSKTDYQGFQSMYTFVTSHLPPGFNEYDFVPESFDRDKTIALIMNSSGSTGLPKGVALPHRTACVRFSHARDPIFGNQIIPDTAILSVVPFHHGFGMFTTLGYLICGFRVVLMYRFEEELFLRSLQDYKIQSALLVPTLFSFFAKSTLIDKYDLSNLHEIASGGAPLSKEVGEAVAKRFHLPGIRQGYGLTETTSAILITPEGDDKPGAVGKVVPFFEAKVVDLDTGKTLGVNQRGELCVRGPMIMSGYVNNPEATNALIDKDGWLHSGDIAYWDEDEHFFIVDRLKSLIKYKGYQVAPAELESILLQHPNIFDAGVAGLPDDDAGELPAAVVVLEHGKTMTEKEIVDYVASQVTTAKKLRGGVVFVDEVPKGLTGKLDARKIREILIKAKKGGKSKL
# [6] = Luminescence Cell-Based Dose Confirmation HTS to Identify Inhibitors of Platelet Dense Granule Release. [Related pubchem assays: 1663 (Primary HTS), 1678 (Summary of Project)]; type: functional
# [7] = test system: CHO-K1; experiment: (§1) Counterscreen for antagonists of the orexin 1 receptor (OX1R; HCRTR1): Homogeneous time resolved fluorescence (HTRF)-based cell-based dose response assay to identify antagonists of the parental CHO-K1 cell line. [Related pubchem assays (depositor defined):AID434989, AID435008, AID463079, AID485270, AID492963, AID492964, AID492965, AID493232, AID504699, AID504701]; type: functional; conditions: Cricetulus griseus
# [8] = as §1, with “Fluorescence-based” for “Homogeneous time resolved fluorescence (HTRF)-based”, “cell-based high throughput” for “cell-based”, “CHO” for “CHO-K1”; type: functional
# [9] = molecular target: T5, Orexin/Hypocretin receptor type 1 (Homo sapiens, UniProt O43613); experiment: Homogeneous Time Resolved Fluorescence (HTRF)-based cell-based high throughput dose response assay for antagonists of the orexin 1 receptor (OX1R; HCRTR1). [Related pubchem assays (depositor defined):AID434989, AID435008, AID463079, AID485270, AID492963, AID492964, AID492965, AID493232, AID504717, AID504718]; type: functional
# T5 sequence (O43613 whole entry): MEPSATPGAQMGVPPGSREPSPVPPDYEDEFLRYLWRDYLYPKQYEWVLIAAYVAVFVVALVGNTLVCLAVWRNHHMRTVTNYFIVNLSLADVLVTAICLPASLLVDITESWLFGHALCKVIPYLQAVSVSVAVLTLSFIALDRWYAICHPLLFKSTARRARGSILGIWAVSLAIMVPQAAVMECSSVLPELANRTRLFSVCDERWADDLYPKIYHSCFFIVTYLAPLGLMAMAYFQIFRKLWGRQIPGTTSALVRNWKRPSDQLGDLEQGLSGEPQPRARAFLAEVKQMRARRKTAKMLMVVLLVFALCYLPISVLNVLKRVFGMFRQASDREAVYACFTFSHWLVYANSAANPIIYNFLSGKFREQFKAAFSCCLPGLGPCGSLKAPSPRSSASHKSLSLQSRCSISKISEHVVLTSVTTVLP
# [10] = molecular target: T5, Orexin/Hypocretin receptor type 1; experiment: Fluorescence-based cell-based high throughput dose response assay for antagonists of the orexin 1 receptor (OX1R; HCRTR1). [Related pubchem assays (depositor defined):AID434989, AID435008, AID463079, AID485270, AID492963, AID492964, AID492965, AID493232, AID504717, AID504718]; type: functional
# [11] = molecular target: T6, Orexin receptor type 2 (Homo sapiens, UniProt O43614); experiment: Counterscreen assay for antagonists of the orexin 1 receptor (OX1R; HCRTR1): Fluorescence-based cell-based dose response assay for antagonists of the orexin 2 receptor (OX2R; HCRTR2), run by assay provider.; type: functional
# T6 sequence (O43614 whole entry): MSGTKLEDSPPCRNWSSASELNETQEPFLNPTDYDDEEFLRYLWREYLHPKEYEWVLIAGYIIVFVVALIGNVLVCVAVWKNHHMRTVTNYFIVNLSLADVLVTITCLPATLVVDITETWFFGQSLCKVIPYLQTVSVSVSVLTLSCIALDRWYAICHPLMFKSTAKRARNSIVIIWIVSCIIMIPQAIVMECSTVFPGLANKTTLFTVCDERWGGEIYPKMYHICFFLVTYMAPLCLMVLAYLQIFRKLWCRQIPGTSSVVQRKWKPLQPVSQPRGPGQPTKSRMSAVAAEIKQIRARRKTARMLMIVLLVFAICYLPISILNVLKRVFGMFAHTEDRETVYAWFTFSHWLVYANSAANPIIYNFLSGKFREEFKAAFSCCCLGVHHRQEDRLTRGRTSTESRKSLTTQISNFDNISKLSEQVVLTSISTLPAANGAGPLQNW
# [12] = molecular target: T6, Orexin receptor type 2; experiment: Counterscreen assay for antagonists of the orexin 1 receptor (OX1R; HCRTR1): Homogeneous Time Resolved Fluorescence (HTRF)-based cell-based dose response assay for antagonists of the orexin 2 receptor (OX2R; HCRTR2), run by assay provider.; type: functional
# [13] = viability of PTEN-deleted HCT116 cells – cell-based, HCT116 PTEN knockout, dose response (AID 1047); type: functional;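 also: HCT116 colon tumor cells with PTEN knocked out; cells exposed to compound for 60 hours before readout; potency for loss of cell viability measured by luminescence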
# [14] = viability of HCT116 lacking mutant beta-catenin – cell-based, human colon tumor, dose response (AID 1045); type: functional;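 also: HCT116 colon tumor cells with beta catenin knocked out; cells exposed to compound for 60 hours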
Structure (SMILES),IC50 [1],IC50 [2],IC50 [3],IC50 [4],EC50 [5],EC50 [6],IC50 [7],IC50 [8],IC50 [9],IC50 [10],IC50 [11],IC50 [12],EC50 [13],EC50 [14]
Cc1cc(-c2csc(Nc3ccccn3)n2)ccc1F,26 µM (active),3.53 µM (active),12.5 µM (active),19.2 µM (active),,,,,,,,,,
O=c1cc(-c2ccc(O)cc2)oc2ccc(O)cc12,16.8 µM (active),9.8 µM (active),87.7 µM (active),11.6 µM (active),,,,,,,,,,
O=C1/C(=C/c2ccc([N+](=O)[O-])cc2)CCc2ccccc21,5.9 µM (active),0.696 µM (active),0.789 µM (active),1.13 µM (active),0.404 µM (active),1.11 µM (active),,,,,,,,
CCn1c2ccccc2c2nc3ccccc3nc21,,,,,,,> 66.3 µM (inactive),> 49.8 µM (inactive),0.914 µM (active),6.2 µM (active),35.2 µM (inactive),6.65 µM (active),,
Cc1noc(C)c1S(=O)(=O)Nc1ccc(O)c2c(=O)cc(-c3ccccc3Cl)oc12,,,,,,,> 66.2 µM (inactive),> 49.7 µM (inactive),0.151 µM (active),23.6 µM (inactive),16.8 µM (inactive),5.63 µM (active),,
CCN(C(=O)CO/N=C/c1ccc(OC)cc1OC)c1c(N)n(Cc2ccccc2)c(=O)[nH]c1=O,,,,,,,> 66.2 µM (inactive),> 49.7 µM (inactive),0.317 µM (active),5.93 µM (active),29 µM (inactive),1.77 µM (active),,
CC(NS(=O)(=O)c1ccc(OCC(=O)Nc2cccc([N+](=O)[O-])c2)cc1)c1ccccc1 (stereo not given),,,,,,,> 66.2 µM (inactive),> 49.8 µM (inactive),0.688 µM (active),13.6 µM (inactive),> 88.8 µM (inactive),> 50 µM (inactive),18.4 µM (active),18.2 µM (active)
